Usually pIC50 stands for the IC50 on a negative log10 scale, so that one unit is a factor of ten.

The structures appear in SMILES notation. pIC50: −log10 of the molar value.

Among the data in ChEMBL document CHEMBL5726780, “Fused tricyclic compounds as Raf kinase inhibitors” (2018) are IC50 values, retold here.

The nature of the experiment: Time-Resolved Fluorescence Energy Transfer Assay: Compounds disclosed herein were tested against B-Raf (V600E) (PV3849, from Invitrogen) or C-Raf (Y340D/Y341D) (PV3805, from Invitrogen) in a time-resolved fluorescence energy transfer assay. The assay was carried out in reactions (10 μL) containing 0.0625 nM B-Raf or 0.5 nM C-Raf, 25 mM Tris pH7.4, 10 mM MgCl2, 0.5 mM EGTA, 0.5 mM […], 5 mM beta-glycerophosphate, 0.01% Triton X-100, 2.5 mM DTT, 0.1% BSA, 0.1 mM ATP, 13.7 nM GST-tagged MEK1 (Full-length protein with K97R mutation, recombinant protein purified from bacterial expression system) and 0-5 μM compounds disclosed herein (final concentration of 1% DMSO). The enzyme was incubated with the compounds at room temperature for 60 minutes and the reactions were initiated by the addition of ATP and GST-MEK1. After incubating at room temperature for 60 minutes, an equal volume of stop buffer containing 25 mM Tris pH7.4, 400 mM KF, 50 mM EDTA, 0.01% BSA, 0.01% Triton X-100, 1 test of Eu3+ Cryptate-conjugated rabbit polyclonal antibody anti-Phospho MEK1/2 (Ser217/221) and 1 test of d2-conjugated mouse monoclonal antibody anti-glutathione S-transferase was added to stop the reactions. Plates were sealed and incubated at room temperature for 2 hours, and then the TR-FRET signals were read on BMG PHERAstar FS instrument. Background: In TR-FRET formats the signal depends on donor and acceptor labels being close together.

In the case of `O=C1CCc2c(Oc3ccc4c(c3)C3C(O4)C3c3nc4ccc(Br)cc4[nH]3)ccnc2N1` (centres undefined), the negative-log IC50 (pIC50) was 7.09.
The value for `O=C1CCc2c(Oc3ccc4c(c3)C3C(C4)C3C(=O)Nc3ccccc3S)ccnc2N1` (centres undefined) was 8.26; that for `CNC(=O)Nc1cc(Oc2ccc3c(c2)C2C(O3)C2c2nc3ccc(C(F)(F)F)cc3[nH]2)ccn1` (centres undefined) was 8.19; that for `O=C1CCc2c(Oc3ccc4c(c3)C3C(O4)C3C(=O)OCC(=O)c3ccccc3)ccnc2N1` (centres undefined) was > 9.60.
